Structures can show the parent of a compound that is named as a salt.
What was measured:
[1] = Emulsion stability (visual separation test; storage, sunlight, temperature); format: physicochemical; conditions: after mixing with heat and agitation; initial observation
Text: In some embodiments of the present invention, a stable emulsion containing oil-soluble compounds and/or resins in a liquid base is provided. The stable emulsion may be stored in a container suitable for delivery to a consumer. The stable emulsion may be provided in a vial, cartridge or other container. Preferably the container is air-tight. The stability of the emulsion may be measured or quantified by no visible separation after 30 days.
In this example, a series of liquid compositions were prepared and evaluated for their emulsion stability. Varying compositions were tested that utilized different lipid solubilizers (8 in total). The liquid base in these compositions was propylene glycol. Test samples (liquid compositions including cannabis extract) were subjected to a range of conditions: temperature, sunlight, extended storage, and varied ingredient concentration. Various types of cannabis extract were also tested. For each test sample, observations were noted about the color, viscosity, general visual appearance of each sample, and any changes seen over time.
Materials and Methods: Testing was performed in 20 ml glass scintillation vials. Mixing of the liquid base and lipid solubilizer was done entirely in borosilicate glassware, and ingredients were measured by mass using an AND EJ-610 balance. Samples were heated using a Scilogex MS7-H55O digitally controlled hot plate. Cannabis extract was produced using an Apeks closed-system solvent extractor running instrument grade propane. […]
Formula preparation: Formulas using lipid solubilizers were prepared in three concentrations: 0.1%, 0.5% and 1.0% by mass, in a solvent base of propylene glycol. […] Stock solutions were made of each of the eight lipid solubilizers at each of the three concentrations, producing a total of 24 different formulas at a quantity of approximately 500 ml each. […] After cooling the formula was ready for use. […]
Test Sample preparation: For each sample, the appropriate quantity of cannabis extract and liquid formula were added to a vial. […]

[2] = Viscosity rating of liquid compositions (cannabis extract emulsions in propylene glycol formulas); format: physicochemical; conditions: cannabis extract emulsion in propylene glycol
Method: The liquid composition comprising the oil-soluble compounds or resin should have a density and viscosity suitable for use in a personal vaporizer. […] For example, a liquid composition having a […] of about 100 cps, alternatively about 75 cps or less, alternatively about 50 cps or less, alternatively about 42 cps (the viscosity of propylene glycol) or more. The foregoing values can be combined to form a range. Viscosity values are determined at 25° C. using standard equipment for measuring viscosity of liquids.
Test Sample preparation: For each sample, the appropriate quantity of cannabis extract and liquid formula were added to a vial. The vial was placed on a hot plate at 85° C. until the extract melted. The vial was gently shaken to disperse the extract. Each of the formula recipes were tested with five concentrations of extract: 5%, 10%, 20%, 33%, and 50%, by mass. For example: to produce a 10% extract sample we placed 9.00 grams of one of the stock oil emulsifier formulas, and 1.00 grams of one of cannabis extracts in a 20 ml scintillation vial and applied heat. The components remained separate until heat and agitation are applied.
The viscosity of each sample is rated, in which “1” indicates lower viscosity, “2” indicates moderate viscosity, and “3” indicates higher viscosity.

Compound | formation of a stable emulsion [1] | viscosity (in words) [2]
CC(=O)OCC(COC(C)=O)OC(C)=O [triacetin, Triacetin] | appeared to perform adequately | –
CCOC(=O)CC(O)(CC(=O)OCC)C(=O)OCC [triethyl citrate, Triethyl Citrate] | appeared to perform adequately | –
CCCCCCCC(=O)OCC(O)CO (centres unmarked) [MCM C8, Glyceryl Caprylate] | – | least viscosity
Propylene Glycol Monolaurate [PG-12] | – | most viscous
CCCCCCCCCCCC(=O)OCC(O)CO (centres unmarked) [Monolaurin, Glyceryl Monolaurate] | effective and flavorless emulsifier | –
